Where a name gives a salt, the structure may show the parent alone.
Question: With Cc1ccc(C(NC(=O)Cc2ccc3c(c2)CC(=O)N3C)c2ccc(C)o2)c(N2CCCCC2)c1 (centres unmarked) (as salt: HCl) [Cpd. 38, N-{[4-methyl-2-(piperidin-1-yl)phenyl](5-methylfuran-2-yl)methyl}-2-(1-methyl-2-oxo-2,3-dihydro-1H-indol-5-yl)acetamide] as the compound, how does the melting point read?
Answer: 215 °C

Question: Which melting point does the source give for Cc1ccc(C(NC(=O)C2(c3ccc4c(c3)OCC(=O)N4)CC2)c2ccc(C)o2)c(C)c1 (centres unmarked) (as salt: HCl) [Cpd. 59, N-[(2,4-dimethylphenyl)(5-methylfuran-2-yl)methyl]-1-(3-oxo-3,4-dihydro-2H-1,4-benzoxazin-7-yl)cyclopropane-1-carboxamide] here?
Answer: 89 °C

Question: With Cc1ccc(C(NC(=O)Cc2ccc3c(ccn3S(C)(=O)=O)c2)c2ccc(C)o2)c(N2CCCCC2)c1 (centres unmarked) (as salt: ammonium) [Cpd. 106, 2-(1-methanesulfonyl-1H-indol-5-yl)-N-{[4-methyl-2-(piperidin-1-yl)phenyl](5-methylfuran-2-yl)methyl}acetamide] as the compound, how does the melting point read?
Answer: 83 °C

Question: For Cc1ccc(C(NC(=O)C2(c3ccc4c(c3)OCC(=O)N4)CC2)c2ccc(C)o2)c(Br)c1 (centres unmarked) (as salt: HCl) [Cpd. 135, N-[(2-bromo-4-methylphenyl)(5-methylfuran-2-yl)methyl]-1-(3-oxo-3,4-dihydro-2H-1,4-benzoxazin-7-yl)cyclopropane-1-carboxamide], which melting point is on record?
Answer: 82 °C

Question: With CNS(=O)(=O)c1c[nH]c2ccc(CC(=O)NC(c3ccc(C)o3)c3ccc(C)cc3N3CCCCC3)cc12 (centres unmarked) (as salt: HCl) [Cpd. 115, N-{[4-methyl-2-(piperidin-1-yl)phenyl](5-methylfuran-2-yl)methyl}-2-[3-(methylsulfamoyl)-1H-indol-5-yl]acetamide] as the compound, how does the melting point read?
Answer: 119 °C

Question: With Cc1ccc(C(NC(=O)Cc2ccc3c(c2)/C(=N/N)C(=O)N3)c2ccc(C)o2)c(N2CCCCC2)c1 (centres unmarked) (hydrate or solvate) [Cpd. 84, 2-[(3Z)-3-hydrazinylidene-2-oxo-2,3-dihydro-1H-indol-5-yl]-N-{[4-methyl-2-(piperidin-1-yl)phenyl](5-methylfuran-2-yl)methyl}acetamide] as the compound, how does the melting point read?
Answer: 130 °C

Question: Which melting point does the source give for Cc1ccc(C(NC(=O)Cc2ccc3c(ccn3CCC(=O)OC(C)(C)C)c2)c2ccc(C)o2)c(N2CCCCC2)c1 (centres unmarked) (as salt: HCl) [Cpd. 96, tert-butyl 3-{5-[({[4-methyl-2-(piperidin-1-yl)phenyl](5-methylfuran-2-yl)methyl}carbamoyl)methyl]-1H-indol-1-yl}propanoate] here?
Answer: 50 °C

Question: Which melting point does the source give for CCSc1nc2cc(CC(=O)NC(c3ccccc3)c3ccc(C)cc3Br)ccc2[nH]1 (centres unmarked) (as salt: hydrochloride) [Cpd. 92, N-[(2-bromo-4-methylphenyl)(phenyl)methyl]-2-[2-(ethylsulfanyl)-1H-1,3-benzodiazol-5-yl]acetamide] here?
Answer: 103 °C

Question: Which melting point does the source give for Cc1ccc(C(NC(=O)C2(c3ccc4c(c3)CC(=O)N4C)CC2)c2ccc(C)o2)c(C)c1 (centres unmarked) (as salt: HCl) [Cpd. 130, N-[(2,4-dimethylphenyl)(5-methylfuran-2-yl)methyl]-1-(1-methyl-2-oxo-2,3-dihydro-1H-indol-5-yl)cyclopropane-1-carboxamide] here?
Answer: 72 °C

Question: For Cc1ccc(C(NC(=O)Cc2ccc3c(c2)C(O)C(=O)N3)c2ccc(C)o2)c(N2CCCCC2)c1 (centres unmarked) (as salt: sodium) [Cpd. 46, 2-(3-hydroxy-2-oxo-2,3-dihydro-1H-indol-5-yl)-N-{[4-methyl-2-(piperidin-1-yl)phenyl](5-methylfuran-2-yl)methyl}acetamide], which melting point is on record?
Answer: 110 °C

Question: Which melting point does the source give for Cc1ccc(C(NC(=O)Cc2ccc3[nH]cc(CO)c3c2)c2ccc(C)o2)c(N2CCCCC2)c1 (centres unmarked) (as salt: HCl) [Cpd. 58, 2-[3-(hydroxymethyl)-1H-indol-5-yl]-N-{[4-methyl-2-(piperidin-1-yl)phenyl](5-methylfuran-2-yl)methyl}acetamide] here?
Answer: 99 °C

Question: Which melting point does the source give for Cc1ccc(C(NC(=O)C2(c3ccc4c(c3)C(C)(C)C(=O)N4)CC2)c2ccc(C)o2)c(C)c1 (centres unmarked) (as salt: HCl) [Cpd. 146, 1-(3,3-dimethyl-2-oxo-2,3-dihydro-1H-indol-5-yl)-N-[(2,4-dimethylphenyl)(5-methylfuran-2-yl)methyl]cyclopropane-1-carboxamide] here?
Answer: 82 °C

Question: With Cc1ccc(C(NC(=O)C2(c3ccc4c(c3)CS(=O)(=O)C4)CC2)c2ccc(Cl)o2)c(C)c1 (centres unmarked) (as salt: HCl) [Cpd. 72, N-[(5-chlorofuran-2-yl)(2,4-dimethylphenyl)methyl]-1-(2,2-dioxo-1,3-dihydro-2-benzothiophen-5-yl)cyclopropane-1-carboxamide] as the compound, how does the melting point read?
Answer: 80 °C

Question: With Cc1ccc(C(NC(=O)Cc2ccc3c(c2)C(O)CC3)c2ccc(C)o2)c(N2CCCCC2)c1 (centres unmarked) (as salt: sodium) [Cpd. 85, 2-(3-hydroxy-2,3-dihydro-1H-inden-5-yl)-N-{[4-methyl-2-(piperidin-1-yl)phenyl](5-methylfuran-2-yl)methyl}acetamide] as the compound, how does the melting point read?
Answer: 60 °C

Question: With Cc1ccc(C(NC(=O)Cc2ccc3[nH]cc(C)c3c2)c2ccc(C)o2)c(N2CCCCC2)c1 (centres unmarked) (as salt: HCl) [Cpd. 64, 2-(3-methyl-1H-indol-5-yl)-N-{[4-methyl-2-(piperidin-1-yl)phenyl](5-methylfuran-2-yl)methyl}acetamide] as the compound, how does the melting point read?
Answer: 68 °C

Question: Which melting point does the source give for CC(C)=C1C(=O)Nc2ccc(CC(=O)NC(c3ccc(C)o3)c3ccc(C)cc3N3CCCCC3)cc21 (centres unmarked) (as salt: HCl) [Cpd. 55, N-{[4-methyl-2-(piperidin-1-yl)phenyl](5-methylfuran-2-yl)methyl}-2-[2-oxo-3-(propan-2-ylidene)-2,3-dihydro-1H-indol-5-yl]acetamide] here?
Answer: 172 °C

Question: With Cc1ccc(C(NC(=O)Cc2ccc3c(c2)CCN3C(=O)C2CC2)c2ccc(C)o2)c(N2CCCCC2)c1 (centres unmarked) (as salt: HCl) [Cpd. 123, 2-(1-cyclopropanecarbonyl-2,3-dihydro-1H-indol-5-yl)-N-{[4-methyl-2-(piperidin-1-yl)phenyl](5-methylfuran-2-yl)methyl}acetamide] as the compound, how does the melting point read?
Answer: 94 °C

Question: For Cc1ccc(C(NC(=O)C2(c3ccc4c(c3)CS(=O)(=O)C4)CC2)c2ccc(C)o2)c(C)c1 (centres unmarked) (as salt: HCl) [Cpd. 74, N-[(2,4-dimethylphenyl)(5-methylfuran-2-yl)methyl]-1-(2,2-dioxo-1,3-dihydro-2-benzothiophen-5-yl)cyclopropane-1-carboxamide], which melting point is on record?
Answer: 74 °C

Question: For Cc1ccc(C(NC(=O)Cc2ccc3[nH]c(C)nc3c2)c2ccccc2)c(N2CCCC2)c1 (centres unmarked) (as salt: HCl) [Cpd. 82, 2-(2-methyl-1H-1,3-benzodiazol-5-yl)-N-{[4-methyl-2-(pyrrolidin-1-yl)phenyl](phenyl)methyl}acetamide], which melting point is on record?
Answer: 132 °C

Question: With Cc1ccc(C(NC(=O)C2(c3ccc4c(c3)OCS(=O)(=O)N4C)CC2)c2ccc(C)o2)c(Br)c1 (centres unmarked) (as salt: HCl) [Cpd. 173, N-[(2-bromo-4-methylphenyl)(5-methylfuran-2-yl)methyl]-1-(1-methyl-2,2-dioxo-1,3-dihydro-4,2,1-benzoxathiazin-6-yl)cyclopropane-1-carboxamide] as the compound, how does the melting point read?
Answer: 71 °C

Question: With Cc1ccc(C(NC(=O)C2(c3ccc4c(c3)CC(=O)N4)CC2)c2ccc(C)o2)c(C)c1 (centres unmarked) (as salt: HCl) [Cpd. 61, N-[(2,4-dimethylphenyl)(5-methylfuran-2-yl)methyl]-1-(2-oxo-2,3-dihydro-1H-indol-5-yl)cyclopropane-1-carboxamide] as the compound, how does the melting point read?
Answer: 85 °C

Question: For Cc1ccc(C(NC(=O)C2(c3ccc4c(c3)CCC4=O)CC2)c2ccc(C)o2)c(C)c1 (centres unmarked) (as salt: HCl) [Cpd. 141, N-[(2,4-dimethylphenyl)(5-methylfuran-2-yl)methyl]-1-(1-oxo-2,3-dihydro-1H-inden-5-yl)cyclopropane-1-carboxamide], which melting point is on record?
Answer: 56 °C

Question: Which melting point does the source give for Cc1ccc(C(NC(=O)C2(c3ccc4c(c3)CCN4C(=O)C3CC3)CC2)c2ccc(C)o2)c(C)c1 (centres unmarked) (as salt: HCl) [Cpd. 95, 1-(1-cyclopropanecarbonyl-2,3-dihydro-1H-indol-5-yl)-N-[(2,4-dimethylphenyl)(5-methylfuran-2-yl)methyl]cyclopropane-1-carboxamide] here?
Answer: 70 °C

Question: For Cc1ccc(C(NC(=O)Cc2ccc3c(c2)CS(=O)(=O)N3CC2CCOCC2)c2ccc(C)o2)c(N2CCCCC2)c1 (centres unmarked) (as salt: HCl) [Cpd. 167, N-{[4-methyl-2-(piperidin-1-yl)phenyl](5-methylfuran-2-yl)methyl}-2-[1-(oxan-4-ylmethyl)-2,2-dioxo-1,3-dihydro-2,1-benzothiazol-5-yl]acetamide], which melting point is on record?
Answer: 85 °C

Question: Which melting point does the source give for Cc1ccc(C(NC(=O)Cc2ccc3[nH]cc(C(=O)N4CCOCC4)c3c2)c2ccc(C)o2)c(N2CCCCC2)c1 (centres unmarked) (as salt: HCl) [Cpd. 120, N-{[4-methyl-2-(piperidin-1-yl)phenyl](5-methylfuran-2-yl)methyl}-2-[3-(morpholine-4-carbonyl)-1H-indol-5-yl]acetamide] here?
Answer: 124 °C

Question: For Cc1ccc(C(NC(=O)Cc2ccc3c(c2)C(C)(O)C(=O)N3C)c2ccc(C)o2)c(N2CCCCC2)c1 (centres unmarked) (as salt: HCl) [Cpd. 39, 2-(3-hydroxy-1,3-dimethyl-2-oxo-2,3-dihydro-1H-indol-5-yl)-N-{[4-methyl-2-(piperidin-1-yl)phenyl](5-methylfuran-2-yl)methyl}acetamide], which melting point is on record?
Answer: 103 °C

Question: With Cc1ccc(C(NC(=O)C2(c3ccc4c(c3)CS(=O)(=O)N4)CC2)c2ccc(C)o2)c(N(C)C)c1 (centres unmarked) (as salt: HCl) [Cpd. 71, N-{[2-(dimethylamino)-4-methylphenyl](5-methylfuran-2-yl)methyl}-1-(2,2-dioxo-1,3-dihydro-2,1-benzothiazol-5-yl)cyclopropane-1-carboxamide] as the compound, how does the melting point read?
Answer: 107 °C

Question: Which melting point does the source give for Cc1ccc(C(NC(=O)C2(c3ccc4c(c3)CN(S(C)(=O)=O)C4)CC2)c2ccc(Cl)o2)c(N2CCCC2)c1 (centres unmarked) (as salt: HCl) [Cpd. 80, N-[(5-chlorofuran-2-yl)[4-methyl-2-(pyrrolidin-1-yl)phenyl]methyl]-1-(2-methanesulfonyl-2,3-dihydro-1H-isoindol-5-yl)cyclopropane-1-carboxamide] here?
Answer: 82 °C

Question: With CC(=O)N1CCc2cc(C3(C(=O)NC(c4ccc(C)o4)c4ccc(C)cc4C)CC3)ccc21 (centres unmarked) (as salt: HCl) [Cpd. 126, 1-(1-acetyl-2,3-dihydro-1H-indol-5-yl)-N-[(2,4-dimethylphenyl)(5-methylfuran-2-yl)methyl]cyclopropane-1-carboxamide] as the compound, how does the melting point read?
Answer: 75 °C
